Experimental data from publication PMC12373846, “Hemoglobin as a pseudoperoxidase and drug target for oxidative stress-related diseases” (Signal Transduction and Targeted Therapy, 2025).
Values joined by “and” are separate entries in the source; they are usually repeats but may differ in a detail not shown here. Equal entries are not always repeated. Where two headings read alike, the source gives them in different places.

What was measured:
[1] = system: APP/PS1 mice; experiment: Novel place recognition test, APP/PS1 mice; assay type: in vivo, mouse
Experimental: For an animal model of AD, both sexes of 10- to 18-month-old APP/PS1 mice were maintained and used as previously described.[76],[77] To test the effects of novel H2O2-decomposing enhancers in the AD model, the mice were treated by i.p. injection with KDS12008 (3 mg/kg/day), KDS12017 (3 mg/kg/day), or KDS12025 (3 or 10 mg/kg/day) once per day for 1 or 2 weeks, depending on the experimental protocol. All drugs were dissolved in 200 μl of saline, and the amount of each drug was calculated on the basis of the weight (kg) of the mouse. Moreover, KDS12025 (3 mg/kg/day) was orally administered to the AD model for 2 weeks ad libitum.
Before the novel place recognition (NPR) test, the mice were subjected to sufficient handling and were concurrently habituated to an open field test (OFT) in a square chamber (40 × 40 × 40 cm). After habituation, the mice were placed in the open field with two identical objects positioned in the first and second quadrants of the cage. The mice were allowed to explore the objects freely for 10 min and then returned to their home cages for 1 h. To test spatial recognition memory, one of the two identical objects was placed in a novel place (quadrant), and the mice were re-entered into the open field chamber for 10 min. The discrimination index (DI) was calculated as the percentage of time spent on the novel place over the total time spent on both the novel and the familiar place. Frequencies were quantified via EthoVision XT software (Noldus, Netherlands).
The mice were deeply anesthetized with vaporized 1% isoflurane and placed into stereotaxic frames (RWD Life Science, China). Following an incision on the midline of the scalp, a hole was drilled into the skull above the hippocampus. AAV-GFAP104-GFP or AAV-GFAP104-DTR-GFP was bilaterally microinjected into the hippocampal CA1 region (AP, −2.0 mm; ML, ±1.5 mm; DV, −1.65 mm from the bregma). Diphtheria toxin (2 mg/ml) was administered for 16 days as previously described.[77] For shRNA knockdown, AAV-pSicoR-Hbβ-shRNA-mCherry or AAV-pSicoR-Sc-shRNA-mCherry was microinjected into the same coordinate system. A total of 0.8 µl of the virus was injected via a syringe pump (KD Scientific, USA). The injection procedures were implemented before 5 weeks of the experiments. For cell type-specific knockdown, AAV-pSico-Hbβ-shRNA-GFP or AAV-pSico-Sc-shRNA-GFP was combined with either AAV-CaMKII-Cre-mCherry for neuronal targeting or AAV-GFAP-Cre-mCherry for astrocyte targeting. The viruses were bilaterally injected into the hippocampus and substantia nigra via the same stereotaxic coordinates and injection procedures. All viruses used in this study were produced at the Institute for Basic Science virus facility (IBS virus facility, Korea). To investigate the effects of 0.1 mg/kg/day KDS12025, GiD mice were injected with diphtheria toxin (2 mg/ml) daily for 16 days. Concurrently, KDS12025 was administered ad libitum (0.1 mg/kg/day) during the same period.

[2] = target: T1, beta 1 (h) (agonist radioligand) (Homo sapiens, UniProt P08588); experiment: SafetyScreen87 panel; settings: 1.0E-06 M, read-out: % Inhibition of Control Specific Binding (1st, 2nd, Mean)
T1 construct: purchased DiscoverX KINOMEscan scanEDGE; Eurofins Cerep SafetyScreen87
T1 sequence (P08588 whole entry): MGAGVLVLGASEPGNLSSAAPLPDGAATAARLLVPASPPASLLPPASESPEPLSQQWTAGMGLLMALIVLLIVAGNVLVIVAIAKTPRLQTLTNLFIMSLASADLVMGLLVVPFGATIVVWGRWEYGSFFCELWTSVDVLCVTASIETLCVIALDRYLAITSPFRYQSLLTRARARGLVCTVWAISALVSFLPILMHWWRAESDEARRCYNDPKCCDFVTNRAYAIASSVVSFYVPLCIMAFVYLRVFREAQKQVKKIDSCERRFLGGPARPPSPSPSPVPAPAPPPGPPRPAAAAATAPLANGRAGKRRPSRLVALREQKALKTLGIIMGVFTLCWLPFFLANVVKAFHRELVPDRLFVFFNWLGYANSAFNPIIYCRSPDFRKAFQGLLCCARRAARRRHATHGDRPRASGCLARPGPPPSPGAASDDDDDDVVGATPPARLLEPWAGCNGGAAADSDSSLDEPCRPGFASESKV
Experimental: (§1) The possibility of KDS12025 on kinase off-target, the KINOMEscan panel of scanEDGE assay was conducted in DiscoverX (CA, USA) using a site-directed competition binding with the test compounds. The assay results are given in Supplementary Table 4 and experimental information is available on the DiscoverX web page (www.discoverx.com). Moreover, the Delta SafetyScreen87 panel assay was conducted in Eurofins Discovery (Cerep, France). The assay results are given in Supplementary Table 5 and experimental information is available on the DiscoverX web page (https://www.eurofinsdiscoveryservices.com).

[3] = target: T2, Y1 (h) (agonist radioligand) (Homo sapiens, UniProt P25929); experiment: SafetyScreen87 panel; settings: read-out: % Inhibition of Control Specific Binding (1st, 2nd, Mean); 1.0E-06 M
T2 construct: purchased DiscoverX KINOMEscan scanEDGE; Eurofins Cerep SafetyScreen87
T2 sequence (P25929 whole entry): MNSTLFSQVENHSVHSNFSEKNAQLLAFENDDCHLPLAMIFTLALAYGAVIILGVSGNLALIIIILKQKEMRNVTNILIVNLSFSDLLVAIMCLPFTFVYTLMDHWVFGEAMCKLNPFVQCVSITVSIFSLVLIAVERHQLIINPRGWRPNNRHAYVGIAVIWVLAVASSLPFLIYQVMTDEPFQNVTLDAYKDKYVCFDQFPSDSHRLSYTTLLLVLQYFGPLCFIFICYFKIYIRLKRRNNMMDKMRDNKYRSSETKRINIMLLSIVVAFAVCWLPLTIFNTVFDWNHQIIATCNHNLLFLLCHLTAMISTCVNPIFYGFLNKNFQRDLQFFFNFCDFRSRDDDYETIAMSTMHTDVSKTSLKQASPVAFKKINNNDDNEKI
Experimental: as §1

[4] = target: T3, mu (MOP) (h) (agonist radioligand) (Homo sapiens, UniProt P35372); experiment: SafetyScreen87 panel; settings: 1.0E-06 M; mean; read-out: % Inhibition of Control Specific Binding (1st, 2nd, Mean)
T3 construct: purchased DiscoverX KINOMEscan scanEDGE; Eurofins Cerep SafetyScreen87
T3 sequence (P35372 whole entry): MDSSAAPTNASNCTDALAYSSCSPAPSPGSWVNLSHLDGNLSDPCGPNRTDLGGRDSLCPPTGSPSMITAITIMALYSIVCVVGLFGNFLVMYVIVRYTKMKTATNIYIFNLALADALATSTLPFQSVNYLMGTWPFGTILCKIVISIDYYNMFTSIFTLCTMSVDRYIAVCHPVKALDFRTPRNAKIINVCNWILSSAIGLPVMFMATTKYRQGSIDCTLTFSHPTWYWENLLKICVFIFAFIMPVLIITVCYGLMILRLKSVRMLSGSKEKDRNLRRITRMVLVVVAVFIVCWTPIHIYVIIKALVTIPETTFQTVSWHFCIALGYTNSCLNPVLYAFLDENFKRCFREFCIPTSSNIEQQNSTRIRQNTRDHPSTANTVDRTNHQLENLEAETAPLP
Experimental: as §1

[5] = system: glycine (strychnine-sensitive) (antagonist radioligand); experiment: SafetyScreen87 panel; settings: 1.0E-06 M, read-out: % Inhibition of Control Specific Binding (1st, 2nd, Mean)
Experimental: as §1

[6] = target: T4, PR (h) (agonist radioligand) (Homo sapiens, UniProt P06401); experiment: SafetyScreen87 panel; settings: read-out: % Inhibition of Control Specific Binding (1st, 2nd, Mean); 1.0E-06 M
T4 construct: purchased DiscoverX KINOMEscan scanEDGE; Eurofins Cerep SafetyScreen87
T4 sequence (P06401 whole entry): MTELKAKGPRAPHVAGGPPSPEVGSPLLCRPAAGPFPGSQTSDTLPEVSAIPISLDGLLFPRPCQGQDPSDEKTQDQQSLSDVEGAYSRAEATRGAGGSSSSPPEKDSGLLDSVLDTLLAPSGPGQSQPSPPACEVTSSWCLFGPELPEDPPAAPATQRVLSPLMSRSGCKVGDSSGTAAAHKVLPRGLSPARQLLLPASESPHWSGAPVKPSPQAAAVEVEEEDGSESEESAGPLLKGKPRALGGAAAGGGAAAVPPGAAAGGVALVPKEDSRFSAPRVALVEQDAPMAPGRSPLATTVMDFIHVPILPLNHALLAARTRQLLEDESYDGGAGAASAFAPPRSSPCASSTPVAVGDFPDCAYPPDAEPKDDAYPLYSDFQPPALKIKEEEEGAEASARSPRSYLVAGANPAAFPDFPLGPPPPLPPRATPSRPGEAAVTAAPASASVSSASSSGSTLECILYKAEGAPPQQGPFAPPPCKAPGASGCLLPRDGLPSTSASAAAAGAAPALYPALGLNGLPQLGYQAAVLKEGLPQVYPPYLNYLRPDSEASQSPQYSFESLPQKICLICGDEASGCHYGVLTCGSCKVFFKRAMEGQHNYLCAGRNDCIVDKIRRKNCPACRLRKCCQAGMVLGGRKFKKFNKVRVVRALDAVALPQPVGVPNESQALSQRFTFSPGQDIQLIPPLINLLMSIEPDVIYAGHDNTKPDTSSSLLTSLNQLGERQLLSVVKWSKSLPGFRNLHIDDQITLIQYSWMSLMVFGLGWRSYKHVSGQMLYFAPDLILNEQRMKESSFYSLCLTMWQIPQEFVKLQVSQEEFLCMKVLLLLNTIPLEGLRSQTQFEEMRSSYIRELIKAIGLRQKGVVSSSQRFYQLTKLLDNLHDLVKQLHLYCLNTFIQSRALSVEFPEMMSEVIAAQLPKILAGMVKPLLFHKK
Experimental: as §1

[7] = target: T5, M3 (h) (antagonist radioligand) (Homo sapiens, UniProt P20309); experiment: SafetyScreen87 panel; settings: 1.0E-06 M; mean; read-out: % Inhibition of Control Specific Binding (1st, 2nd, Mean)
T5 construct: purchased DiscoverX KINOMEscan scanEDGE; Eurofins Cerep SafetyScreen87
T5 sequence (P20309 whole entry): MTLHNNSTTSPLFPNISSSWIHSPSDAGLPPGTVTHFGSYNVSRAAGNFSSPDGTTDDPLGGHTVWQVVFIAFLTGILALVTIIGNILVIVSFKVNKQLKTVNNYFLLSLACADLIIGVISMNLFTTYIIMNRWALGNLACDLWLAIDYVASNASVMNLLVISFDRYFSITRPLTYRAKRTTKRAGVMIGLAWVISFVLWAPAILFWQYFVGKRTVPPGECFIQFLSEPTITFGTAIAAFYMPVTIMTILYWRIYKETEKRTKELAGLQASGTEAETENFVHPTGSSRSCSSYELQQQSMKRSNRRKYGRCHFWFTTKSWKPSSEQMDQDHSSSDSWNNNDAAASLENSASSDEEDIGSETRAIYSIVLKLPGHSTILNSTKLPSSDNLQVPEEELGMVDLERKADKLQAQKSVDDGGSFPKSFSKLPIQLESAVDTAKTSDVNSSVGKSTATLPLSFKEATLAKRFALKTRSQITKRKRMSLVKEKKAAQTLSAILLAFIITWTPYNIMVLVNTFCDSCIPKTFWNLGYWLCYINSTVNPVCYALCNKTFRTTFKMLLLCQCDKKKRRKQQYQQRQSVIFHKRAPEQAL
Experimental: as §1

[8] = target: T6, alpha 1D (h) (antagonist radioligand) (Homo sapiens, UniProt P25100); experiment: SafetyScreen87 panel; settings: 1.0E-06 M, read-out: % Inhibition of Control Specific Binding (1st, 2nd, Mean)
T6 construct: purchased DiscoverX KINOMEscan scanEDGE; Eurofins Cerep SafetyScreen87
T6 sequence (P25100 whole entry): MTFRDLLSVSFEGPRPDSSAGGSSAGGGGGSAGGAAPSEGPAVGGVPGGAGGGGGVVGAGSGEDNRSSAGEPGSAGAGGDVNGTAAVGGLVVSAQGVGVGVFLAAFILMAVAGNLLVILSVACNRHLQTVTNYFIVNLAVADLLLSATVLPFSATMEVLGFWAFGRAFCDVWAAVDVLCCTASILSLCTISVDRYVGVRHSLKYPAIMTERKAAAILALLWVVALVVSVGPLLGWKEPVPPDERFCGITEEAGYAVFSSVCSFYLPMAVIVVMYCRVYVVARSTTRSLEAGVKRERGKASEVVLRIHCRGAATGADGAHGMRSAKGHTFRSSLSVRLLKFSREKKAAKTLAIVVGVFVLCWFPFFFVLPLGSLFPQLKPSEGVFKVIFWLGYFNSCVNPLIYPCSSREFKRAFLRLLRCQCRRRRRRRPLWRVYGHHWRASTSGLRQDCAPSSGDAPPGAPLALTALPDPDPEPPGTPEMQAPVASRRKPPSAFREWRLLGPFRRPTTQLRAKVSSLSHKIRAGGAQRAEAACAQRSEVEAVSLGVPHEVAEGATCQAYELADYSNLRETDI
Experimental: as §1

[9] = target: T7, M1 (h) (antagonist radioligand) (Homo sapiens, UniProt P11229); experiment: SafetyScreen87 panel; settings: 1.0E-06 M; mean; read-out: % Inhibition of Control Specific Binding (1st, 2nd, Mean)
T7 construct: purchased DiscoverX KINOMEscan scanEDGE; Eurofins Cerep SafetyScreen87
T7 sequence (P11229 whole entry): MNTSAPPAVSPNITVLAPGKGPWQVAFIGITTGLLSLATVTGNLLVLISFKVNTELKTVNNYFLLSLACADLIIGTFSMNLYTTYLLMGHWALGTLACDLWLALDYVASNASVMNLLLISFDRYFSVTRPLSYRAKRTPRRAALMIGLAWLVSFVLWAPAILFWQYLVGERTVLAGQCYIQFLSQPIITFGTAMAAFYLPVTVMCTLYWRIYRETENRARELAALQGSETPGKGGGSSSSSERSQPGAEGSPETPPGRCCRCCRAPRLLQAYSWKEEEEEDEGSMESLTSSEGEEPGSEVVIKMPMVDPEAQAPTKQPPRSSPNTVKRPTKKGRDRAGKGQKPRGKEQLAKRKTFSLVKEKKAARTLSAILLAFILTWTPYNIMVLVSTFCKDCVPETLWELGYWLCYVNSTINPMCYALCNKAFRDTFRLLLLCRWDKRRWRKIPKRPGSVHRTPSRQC
Experimental: as §1

[10] = system: GABA transporter (antagonist radioligand); experiment: SafetyScreen87 panel; settings: 1.0E-06 M, read-out: % Inhibition of Control Specific Binding (1st, 2nd, Mean)
Experimental: as §1

[11] = target: T8, 5-HT transporter (h) (antagonist radioligand) (Homo sapiens, UniProt P31645); experiment: SafetyScreen87 panel; settings: 1.0E-06 M, read-out: % Inhibition of Control Specific Binding (1st, 2nd, Mean)
T8 construct: Eurofins Discovery (Cerep, France) SafetyScreen87 panel
T8 sequence (P31645 whole entry): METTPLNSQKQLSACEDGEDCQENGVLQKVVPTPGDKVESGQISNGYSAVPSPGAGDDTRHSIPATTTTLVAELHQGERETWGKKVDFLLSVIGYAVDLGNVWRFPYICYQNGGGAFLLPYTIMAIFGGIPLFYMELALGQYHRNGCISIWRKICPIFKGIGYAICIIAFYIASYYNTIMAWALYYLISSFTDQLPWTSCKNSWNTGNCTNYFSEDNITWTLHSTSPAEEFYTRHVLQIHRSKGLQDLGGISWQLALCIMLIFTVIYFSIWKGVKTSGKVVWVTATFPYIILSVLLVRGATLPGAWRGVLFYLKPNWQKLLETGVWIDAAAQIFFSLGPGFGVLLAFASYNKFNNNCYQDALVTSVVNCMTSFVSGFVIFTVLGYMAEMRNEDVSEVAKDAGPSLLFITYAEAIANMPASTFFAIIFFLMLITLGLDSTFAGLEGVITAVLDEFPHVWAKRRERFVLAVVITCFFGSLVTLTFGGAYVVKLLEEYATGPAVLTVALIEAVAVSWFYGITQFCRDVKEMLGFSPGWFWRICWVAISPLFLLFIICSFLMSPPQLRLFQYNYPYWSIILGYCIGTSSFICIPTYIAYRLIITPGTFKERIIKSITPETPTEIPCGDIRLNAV
Experimental: as §1

[12] = target: T9, M4 (h) (antagonist radioligand) (Homo sapiens, UniProt P08173); experiment: SafetyScreen87 panel; settings: 1.0E-06 M; mean; read-out: % Inhibition of Control Specific Binding (1st, 2nd, Mean)
T9 construct: purchased DiscoverX KINOMEscan scanEDGE; Eurofins Cerep SafetyScreen87
Experimental: as §1

[13] = system: Ca2+ channel (L, diltiazem site) (benzothiazepines) (antagonist radioligand); experiment: SafetyScreen87 panel; settings: 1.0E-06 M, read-out: % Inhibition of Control Specific Binding (1st, 2nd, Mean)
Experimental: as §1

[14] = target: T10, ETA (h) (agonist radioligand) (Homo sapiens, UniProt P25101); experiment: SafetyScreen87 panel
T10 construct: purchased DiscoverX KINOMEscan scanEDGE; Eurofins Cerep SafetyScreen87
T10 sequence (P25101 21-427): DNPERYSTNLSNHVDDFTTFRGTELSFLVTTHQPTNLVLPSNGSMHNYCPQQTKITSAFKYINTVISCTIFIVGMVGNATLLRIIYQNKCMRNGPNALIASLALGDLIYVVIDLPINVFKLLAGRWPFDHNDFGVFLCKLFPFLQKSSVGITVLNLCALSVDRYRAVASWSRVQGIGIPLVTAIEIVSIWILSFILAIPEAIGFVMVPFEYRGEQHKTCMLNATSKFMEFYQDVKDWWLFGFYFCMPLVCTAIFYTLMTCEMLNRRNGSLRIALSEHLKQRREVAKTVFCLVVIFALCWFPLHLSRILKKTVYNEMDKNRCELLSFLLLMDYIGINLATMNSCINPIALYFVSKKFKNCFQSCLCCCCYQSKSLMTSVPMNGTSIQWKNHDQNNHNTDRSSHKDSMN
Experimental: as §1

[15] = target: T11, NK1 (h) (agonist radioligand) (Homo sapiens, UniProt P25103); experiment: SafetyScreen87 panel; settings: 1.0E-06 M; mean; read-out: % Inhibition of Control Specific Binding (1st, 2nd, Mean)
T11 construct: purchased DiscoverX KINOMEscan scanEDGE; Eurofins Cerep SafetyScreen87
Experimental: as §1

[16] = target: T12, 5-HT2A (h) (agonist radioligand) (Homo sapiens, UniProt P28223); experiment: SafetyScreen87 panel; settings: 1.0E-06 M; mean; read-out: % Inhibition of Control Specific Binding (1st, 2nd, Mean)
T12 construct: purchased DiscoverX KINOMEscan scanEDGE; Eurofins Cerep SafetyScreen87
Experimental: as §1

[17] = target: T13, GR (h) (agonist radioligand) (Homo sapiens, UniProt P04150); experiment: SafetyScreen87 panel; settings: 1.0E-06 M; mean; read-out: % Inhibition of Control Specific Binding (1st, 2nd, Mean)
T13 construct: purchased DiscoverX KINOMEscan scanEDGE; Eurofins Cerep SafetyScreen87
Experimental: as §1

CNc1ccc(NCCc2ccccc2OC)cc1.Cl [KDS12025, N^1-(2-methoxyphenethyl)-N^4-methylbenzene-1,4-diamine hydrochloride salt]
NPR discrimination index ([1]; APP+KDS12025 3 mg/kg/day ad libitum, Fig. 5n): WT (0.2560±0.07604, n=6), APP (-0.0956±0.05233, n=5), APP+KDS12025 (ad libitum) (0.2057±0.04843, n=6) One-way ANOVA with Tukey's multiple comparisons test, F(2,14) = 8.997, p = 0.003 WT vs. APP, p = 0.004; WT vs. APP+KDS12025 (ad libitum), p = 0.82; APP vs. APP+KDS12025 (ad libitum), p = 0.01
NPR discrimination index ([1]; APP+ScRNA+KDS12025, Fig. 6g): 0.46±0.09
NPR discrimination index ([1]; APP+shHbβ+KDS12025, Fig. 6g): -0.06±0.082
NPR discrimination index ([1]; APP+shHbβ::CaMKII+KDS12025, Fig. 6l): 0.24±0.08
NPR discrimination index ([1]; APP+shHbβ::GFAP+KDS12025, Fig. 6l): -0.04±0.059
activity ([2]; mean): 90.5%
activity [2]: 86.7% and 94.3%
activity [3]: 104%
activity [4]: 84.5%
activity ([5]; mean): 118%
activity [5]: 117% and 118%
activity [6]: 104%
activity [7]: 85.5%
activity ([8]; mean): 75.8%
activity [8]: 75.3% and 76.3%
activity [9]: 91.8%
activity ([10]; mean): 96%
activity [10]: 101% and 91.1%
activity ([11]; mean): 54.6%
activity [11]: 62.9% and 46.4%
activity [12]: 102%
activity ([13]; mean): 84.9%
activity [13]: 88.1% and 81.7%
activity ([14]; 1.0E-06 M; read-out: % Inhibition of Control Specific Binding (1st, 2nd, Mean)): 108%
activity ([14]; read-out: % Inhibition of Control Specific Binding (1st, 2nd, Mean); 1.0E-06 M): 90.8%
activity [15]: 91.2%
activity [16]: 81.8%
activity [17]: 104%
